Publication PMC6709783, “Structural Basis for Allosteric Ligand Recognition in the Human CC Chemokine Receptor 7” (Cell, 2019)
Blank lines part the entries; values can stand above or below the molecule they belong to.

Columns and labels:
human CCR7 = target: T1, human CCR7 (Homo sapiens, UniProt P32248, L145W); experiment: Thermofluor stability assay (thermal shift, CPM dye) with purified CCR7-L145W; assay type: binding; conditions: Figure 4B; for thermo-stabilizing effect on CCR7 (in words): known chemokine receptor ligands tested for selectivity of the pocket
T1 construct: enhanced green fluorescent protein (eGFP) (C); decahistidine-tag (His10) (C); made in house; host or cells: Sf9 insect cells (baculovirus)
T1 sequence (P32248 25-348 L145W): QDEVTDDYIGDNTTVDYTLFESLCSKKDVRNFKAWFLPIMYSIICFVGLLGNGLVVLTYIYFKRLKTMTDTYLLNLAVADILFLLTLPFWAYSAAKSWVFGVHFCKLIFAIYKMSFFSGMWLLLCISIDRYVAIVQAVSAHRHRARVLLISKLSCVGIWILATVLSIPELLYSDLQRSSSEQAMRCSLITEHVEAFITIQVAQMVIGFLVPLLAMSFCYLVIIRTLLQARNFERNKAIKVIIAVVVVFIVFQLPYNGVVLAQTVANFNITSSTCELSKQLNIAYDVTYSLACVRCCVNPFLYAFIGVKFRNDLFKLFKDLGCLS
Procedure: The plate was sealed and incubated for 30 min on ice. A 1:100 (v/v) working solution of the CPM (N-[4-(7-diethylamino-4-methyl-3-coumarinyl)phenyl]maleimide) dye stock (3 mg/mL in DMSO) was prepared and 5.14 μL of this solution were added to each well and mixed thoroughly. Out of each well, 3 × 20 μL were distributed into 0.1 mL Rotor-Gene Q tubes (QIAGEN). […] The gain set was determined at the beginning of the run. The melting temperature (Tm) was calculated from the point of inflection.
All liquid-handling steps were performed using a Bravo automated liquid handling platform and a 96LT head.
Melting temperatures (Tm) in the thermofluor stability assays were calculated and analyzed by automated scripts based on a fit to the Boltzmann equation. Details on significance levels and number of experiments are given in the corresponding figure legends.

CCR7 = target: T2, CCR7 (Homo sapiens, UniProt P32248); experiment: Cellular arrestin recruitment assay (PathHunter eXpress CCR7 CHO-K1 β-Arrestin); assay type: cell-based; conditions: agonist concentration used for challenge
T2 construct: host or cells: CHO-K1 (PathHunter eXpress CCR7 β-Arrestin)
T2 sequence (P32248 25-378): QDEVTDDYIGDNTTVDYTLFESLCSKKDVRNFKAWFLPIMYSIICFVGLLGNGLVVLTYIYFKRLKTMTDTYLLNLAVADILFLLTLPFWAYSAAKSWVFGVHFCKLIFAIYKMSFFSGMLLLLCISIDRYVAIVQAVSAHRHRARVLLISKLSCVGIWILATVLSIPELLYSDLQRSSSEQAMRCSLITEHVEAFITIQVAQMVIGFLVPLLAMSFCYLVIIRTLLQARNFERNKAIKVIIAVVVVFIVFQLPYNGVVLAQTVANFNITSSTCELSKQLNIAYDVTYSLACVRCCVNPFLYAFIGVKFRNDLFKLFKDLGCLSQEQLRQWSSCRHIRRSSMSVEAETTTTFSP
From the text: Microplates were read following signal generation with a PerkinElmer Envision™ instrument for chemiluminescent signal detection.

CCR5 receptor = conditions: ref Knepp et al., 2011; cited from earlier work
[1] = target: T3, CCR7 in PathHunter eXpress CCR7 CHO-K1 β-Arrestin cells (human, UniProt P32248 25-378); experiment: cell-based or functional assay
T3 sequence (looked up): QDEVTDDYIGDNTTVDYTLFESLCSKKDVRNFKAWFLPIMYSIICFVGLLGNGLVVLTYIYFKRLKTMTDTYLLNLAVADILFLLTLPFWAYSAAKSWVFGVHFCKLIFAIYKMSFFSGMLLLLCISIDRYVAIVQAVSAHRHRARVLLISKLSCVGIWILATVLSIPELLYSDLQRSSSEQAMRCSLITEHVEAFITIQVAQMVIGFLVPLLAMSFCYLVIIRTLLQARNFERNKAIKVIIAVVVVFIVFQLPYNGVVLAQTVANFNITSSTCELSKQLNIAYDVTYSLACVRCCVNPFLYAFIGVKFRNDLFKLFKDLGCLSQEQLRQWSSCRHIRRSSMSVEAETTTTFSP

Molecule: CC1(C)CN2C(CSC(=NC3CCCCC3)NC3CCCCC3)=CSC2=N1 [IT1t]
thermo-stabilizing effect on CCR7 (in words) (human CCR7): did not affect CCR7

EC80 concentration, arrestin recruitment (CCR7): 0.057 µM
Molecule: CCL19: native chemokine agonist of CCR7 (human CCL19)

Molecule: Maraviroc
thermo-stabilizing effect on CCR7 (in words) (human CCR7): did not affect CCR7 | stabilizing effect on CCR5 (CCR5 receptor): up to 18.9 °C

Molecule: CC(C)Cc1ccc([C@@H](C)C(=O)NS(C)(=O)=O)cc1 [Reparixin]
thermo-stabilizing effect on CCR7 (in words) (human CCR7): Neither did the CXCR2 antagonist Danirixin nor the CXCR1 and CXCR2 antagonist Reparixin stabilize CCR7

stabilizing effect on CCR7 (human CCR7; hit from virtual and automated thermofluor screening (50 μM ligand)): 2.4 °C
Molecule: CCOc1ccc(NC(=O)C2CCN(C3=NS(=O)(=O)C(c4ccc(OC)cc4)=C3C)CC2)cc1 [CS-1]

arrestin recruitment in PathHunter eXpress CCR7 CHO-K1 β-Arrestin cells, dose response of CCL19 (EC50) [1]: 0.012 µM
B1: human CCL19 (ligand, UniProt Q99731 22-98, looked up)
chain: GTNDAEDCCLSVTQKPIPGYIVRNFHYLLIKDGCRVPAVVFTTLRGRQLCAPPDQPWVERIIQRLQRTSAKMKRRSS
modifications: radioactive label (2200 Ci/mmole) on the labeled part of the mixture
